From the kinase profiling compilation of Christmann-Franck et al. (2016)
Values joined by “and” are separate entries in the source; they are usually repeats but may differ in a detail not shown here. Equal values may be shown once.

How the values were obtained:
Assay in all cases: KINOMEscan competition binding
Settings in all cases: compound 10.0 µM
[1] = test system: EGFR (human), P00533 [L858R]
[2] = test system: EGFR (human), P00533 [G719S]
CLK4 (human) = CLK4 (human) (UniProt Q9HAZ1)
ANKK1 (human) = ANKK1 (human) (UniProt Q8NFD2)
CHEK2 (human) = CHEK2 (human) (UniProt O96017)
[3] = test system: EGFR (human), P00533 [G719C]
MAPK8 (human) = MAPK8 (human) (UniProt P45983)
TNK2 (human) = TNK2 (human) (UniProt Q07912)
MAPK13 (human) = MAPK13 (human) (UniProt O15264)
[4] = test system: EGFR (human), P00533 [752-759 del]
PIK3CG (human) = PIK3CG (human) (UniProt P48736)
[5] = test system: EGFR (human), P00533 [746-750 del]
PRKD1 (human) = PRKD1 (human) (UniProt Q15139)
[6] = test system: KIT (human), P10721 [V559D/V654A]
[7] = test system: EGFR (human), P00533 [747-751 del / S ins]
RPS6KA3 KD1 (human) = RPS6KA3 KD1 (human) (UniProt P51812)
AAK1 (human) = AAK1 (human) (UniProt Q2M2I8)
[8] = test system: EGFR (human), P00533 [P753S; 747-752 del]
IRAK1 (human) = IRAK1 (human) (UniProt P51617)
EGFR (human) = EGFR (human) (UniProt P00533)
[9] = test system: EGFR (human), P00533 [T790M/L858R]
ERN1 (human) = ERN1 (human) (UniProt O75460)
CDC2L2 (human) = CDC2L2 (human) (UniProt Q9UQ88)
DYRK1B (human) = DYRK1B (human) (UniProt Q9Y463)
[10] = test system: EGFR (human), P00533 [L861Q]
[11] = test system: EGFR (human), P00533 [A750P; 747-749 del]
MELK (human) = MELK (human) (UniProt Q14680)
TAOK1 (human) = TAOK1 (human) (UniProt Q7L7X3)
Chain of TAOK1 (human) (Q7L7X3 whole entry, looked up): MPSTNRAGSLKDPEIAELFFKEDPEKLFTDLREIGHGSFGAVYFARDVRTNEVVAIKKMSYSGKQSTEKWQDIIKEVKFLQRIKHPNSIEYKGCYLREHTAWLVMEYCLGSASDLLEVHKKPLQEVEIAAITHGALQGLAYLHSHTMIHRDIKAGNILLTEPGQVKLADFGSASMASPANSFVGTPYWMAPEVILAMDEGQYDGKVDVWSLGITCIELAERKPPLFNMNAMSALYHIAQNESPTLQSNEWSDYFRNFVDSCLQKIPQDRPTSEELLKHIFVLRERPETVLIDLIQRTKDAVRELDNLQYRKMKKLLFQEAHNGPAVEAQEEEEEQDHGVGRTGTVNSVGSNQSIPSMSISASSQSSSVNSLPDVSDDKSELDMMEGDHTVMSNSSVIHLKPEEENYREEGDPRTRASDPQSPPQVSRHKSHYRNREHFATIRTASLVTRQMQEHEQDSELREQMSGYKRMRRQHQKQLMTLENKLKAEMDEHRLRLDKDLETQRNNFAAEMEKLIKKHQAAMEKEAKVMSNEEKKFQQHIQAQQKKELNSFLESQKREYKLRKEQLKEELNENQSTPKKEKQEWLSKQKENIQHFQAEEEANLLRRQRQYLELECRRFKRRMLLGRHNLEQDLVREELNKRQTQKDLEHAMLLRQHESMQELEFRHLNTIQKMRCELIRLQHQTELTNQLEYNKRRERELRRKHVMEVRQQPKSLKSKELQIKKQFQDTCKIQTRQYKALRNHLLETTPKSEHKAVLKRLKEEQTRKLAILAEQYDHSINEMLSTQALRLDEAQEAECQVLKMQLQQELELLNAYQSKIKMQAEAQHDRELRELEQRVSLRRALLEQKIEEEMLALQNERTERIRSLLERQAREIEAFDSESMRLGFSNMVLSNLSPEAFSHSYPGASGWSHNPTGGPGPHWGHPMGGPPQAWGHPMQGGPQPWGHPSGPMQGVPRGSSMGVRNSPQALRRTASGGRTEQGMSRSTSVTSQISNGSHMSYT

Chain of IRAK1 (human) (P51617 whole entry, looked up): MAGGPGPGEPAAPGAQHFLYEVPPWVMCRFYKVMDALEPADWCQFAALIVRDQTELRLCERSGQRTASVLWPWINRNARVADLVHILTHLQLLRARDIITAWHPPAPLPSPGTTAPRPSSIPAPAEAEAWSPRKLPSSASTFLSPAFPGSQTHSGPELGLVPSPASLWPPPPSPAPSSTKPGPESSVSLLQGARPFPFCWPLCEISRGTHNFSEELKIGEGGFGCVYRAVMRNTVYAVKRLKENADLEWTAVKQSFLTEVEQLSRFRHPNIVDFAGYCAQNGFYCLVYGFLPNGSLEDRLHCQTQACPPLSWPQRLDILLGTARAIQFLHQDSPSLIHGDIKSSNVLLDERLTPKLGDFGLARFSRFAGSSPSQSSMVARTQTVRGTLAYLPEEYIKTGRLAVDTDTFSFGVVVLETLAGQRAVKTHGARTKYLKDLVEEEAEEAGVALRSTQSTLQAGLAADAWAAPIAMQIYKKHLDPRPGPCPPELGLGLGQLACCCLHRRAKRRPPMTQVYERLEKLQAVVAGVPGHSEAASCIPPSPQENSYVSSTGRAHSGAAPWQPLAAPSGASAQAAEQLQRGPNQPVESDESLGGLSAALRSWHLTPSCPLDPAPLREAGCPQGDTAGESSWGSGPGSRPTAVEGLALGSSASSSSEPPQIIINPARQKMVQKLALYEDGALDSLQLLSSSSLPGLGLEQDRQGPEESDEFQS
Chain of ERN1 (human) (O75460 whole entry, looked up): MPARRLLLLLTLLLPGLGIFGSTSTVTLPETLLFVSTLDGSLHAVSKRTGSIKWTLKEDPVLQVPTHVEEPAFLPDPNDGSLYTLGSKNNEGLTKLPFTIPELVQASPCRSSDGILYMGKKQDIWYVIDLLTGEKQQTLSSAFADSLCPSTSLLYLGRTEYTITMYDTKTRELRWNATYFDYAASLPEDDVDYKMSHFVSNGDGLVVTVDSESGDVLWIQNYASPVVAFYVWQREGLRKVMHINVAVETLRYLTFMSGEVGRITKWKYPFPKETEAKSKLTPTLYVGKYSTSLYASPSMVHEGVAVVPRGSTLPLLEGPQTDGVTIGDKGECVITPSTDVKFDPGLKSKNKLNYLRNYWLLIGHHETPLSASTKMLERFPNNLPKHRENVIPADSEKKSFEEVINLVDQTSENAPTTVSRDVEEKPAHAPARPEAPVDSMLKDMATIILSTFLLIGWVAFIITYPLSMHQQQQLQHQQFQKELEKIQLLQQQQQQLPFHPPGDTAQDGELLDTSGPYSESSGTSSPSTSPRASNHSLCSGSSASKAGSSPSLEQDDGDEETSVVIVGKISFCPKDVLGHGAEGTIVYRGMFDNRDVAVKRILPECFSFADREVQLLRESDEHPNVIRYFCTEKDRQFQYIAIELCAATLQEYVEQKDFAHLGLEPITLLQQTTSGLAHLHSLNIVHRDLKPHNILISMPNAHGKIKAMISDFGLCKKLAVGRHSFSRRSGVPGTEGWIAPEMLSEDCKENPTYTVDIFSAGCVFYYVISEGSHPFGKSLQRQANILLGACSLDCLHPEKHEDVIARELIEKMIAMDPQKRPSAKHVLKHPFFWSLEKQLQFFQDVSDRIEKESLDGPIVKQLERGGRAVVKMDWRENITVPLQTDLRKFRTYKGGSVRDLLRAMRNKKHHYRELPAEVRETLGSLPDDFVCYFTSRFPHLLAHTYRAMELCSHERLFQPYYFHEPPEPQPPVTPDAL
Chain of MAPK8 (human) (P45983 whole entry, looked up): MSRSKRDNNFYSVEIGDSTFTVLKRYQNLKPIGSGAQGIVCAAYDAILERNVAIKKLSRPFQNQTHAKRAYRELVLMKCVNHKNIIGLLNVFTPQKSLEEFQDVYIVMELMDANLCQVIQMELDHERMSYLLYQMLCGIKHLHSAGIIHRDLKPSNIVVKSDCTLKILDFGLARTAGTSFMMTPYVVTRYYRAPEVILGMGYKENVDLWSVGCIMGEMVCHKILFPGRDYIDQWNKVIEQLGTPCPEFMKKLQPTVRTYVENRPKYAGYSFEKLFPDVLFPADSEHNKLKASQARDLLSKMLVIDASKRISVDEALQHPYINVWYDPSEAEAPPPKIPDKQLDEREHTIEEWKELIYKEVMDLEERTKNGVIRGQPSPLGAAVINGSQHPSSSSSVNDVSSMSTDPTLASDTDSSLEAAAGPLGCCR
Chain of TNK2 (human) (Q07912 whole entry, looked up): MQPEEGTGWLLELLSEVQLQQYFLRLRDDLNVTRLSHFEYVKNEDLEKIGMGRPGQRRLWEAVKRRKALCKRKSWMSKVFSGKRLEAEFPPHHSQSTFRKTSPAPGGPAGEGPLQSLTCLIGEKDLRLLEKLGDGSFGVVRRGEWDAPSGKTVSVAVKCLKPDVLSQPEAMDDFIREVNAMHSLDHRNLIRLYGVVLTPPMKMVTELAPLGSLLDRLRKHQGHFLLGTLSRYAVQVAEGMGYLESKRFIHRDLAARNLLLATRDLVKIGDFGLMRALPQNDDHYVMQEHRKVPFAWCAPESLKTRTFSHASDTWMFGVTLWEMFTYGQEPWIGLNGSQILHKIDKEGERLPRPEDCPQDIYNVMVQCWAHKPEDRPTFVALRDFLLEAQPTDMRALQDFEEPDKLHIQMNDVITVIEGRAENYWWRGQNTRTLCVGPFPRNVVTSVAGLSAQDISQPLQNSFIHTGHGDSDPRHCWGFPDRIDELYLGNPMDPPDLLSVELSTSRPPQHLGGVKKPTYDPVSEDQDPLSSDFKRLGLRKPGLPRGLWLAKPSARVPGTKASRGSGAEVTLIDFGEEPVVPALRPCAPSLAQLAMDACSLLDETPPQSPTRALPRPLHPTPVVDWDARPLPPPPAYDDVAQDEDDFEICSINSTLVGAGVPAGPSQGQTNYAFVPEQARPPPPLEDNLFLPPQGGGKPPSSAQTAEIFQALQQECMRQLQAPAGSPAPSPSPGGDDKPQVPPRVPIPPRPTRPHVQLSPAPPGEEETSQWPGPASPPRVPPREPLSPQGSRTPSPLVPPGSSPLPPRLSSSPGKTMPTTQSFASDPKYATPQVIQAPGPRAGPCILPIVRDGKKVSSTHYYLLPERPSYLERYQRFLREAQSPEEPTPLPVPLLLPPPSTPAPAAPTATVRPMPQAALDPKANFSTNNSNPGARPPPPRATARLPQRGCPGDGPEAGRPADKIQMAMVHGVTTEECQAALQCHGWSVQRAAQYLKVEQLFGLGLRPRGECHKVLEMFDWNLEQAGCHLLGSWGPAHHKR
Chain of CDC2L2 (human) (Q9UQ88 whole entry, looked up): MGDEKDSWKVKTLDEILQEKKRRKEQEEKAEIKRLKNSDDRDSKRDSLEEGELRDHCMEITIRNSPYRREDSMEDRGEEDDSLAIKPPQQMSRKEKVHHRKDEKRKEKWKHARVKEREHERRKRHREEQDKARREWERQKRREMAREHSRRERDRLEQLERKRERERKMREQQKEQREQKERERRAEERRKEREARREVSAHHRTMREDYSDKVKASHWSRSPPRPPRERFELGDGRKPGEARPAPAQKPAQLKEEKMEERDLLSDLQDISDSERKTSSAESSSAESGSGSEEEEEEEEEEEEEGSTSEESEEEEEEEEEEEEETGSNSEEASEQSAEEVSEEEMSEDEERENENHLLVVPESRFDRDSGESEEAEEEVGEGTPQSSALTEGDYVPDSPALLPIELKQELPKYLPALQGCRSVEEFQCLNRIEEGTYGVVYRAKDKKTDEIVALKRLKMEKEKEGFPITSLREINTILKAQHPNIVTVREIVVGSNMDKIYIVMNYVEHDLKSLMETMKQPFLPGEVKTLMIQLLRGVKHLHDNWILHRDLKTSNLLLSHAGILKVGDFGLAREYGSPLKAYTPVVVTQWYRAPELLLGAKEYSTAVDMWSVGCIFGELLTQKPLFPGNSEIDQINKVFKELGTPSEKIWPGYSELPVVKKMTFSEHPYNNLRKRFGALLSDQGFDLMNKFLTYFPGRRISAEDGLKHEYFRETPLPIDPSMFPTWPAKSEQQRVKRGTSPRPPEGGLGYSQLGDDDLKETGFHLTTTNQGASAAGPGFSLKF

Row | kinase still bound, per cent of control [1] | kinase still bound, per cent of control [2] | kinase still bound, per cent of control (CLK4 (human)) | kinase still bound, per cent of control (ANKK1 (human)) | kinase still bound, per cent of control (CHEK2 (human)) | kinase still bound, per cent of control [3] | kinase still bound, per cent of control (MAPK8 (human)) | kinase still bound, per cent of control (TNK2 (human)) | kinase still bound, per cent of control (MAPK13 (human)) | kinase still bound, per cent of control [4] | kinase still bound, per cent of control (PIK3CG (human)) | kinase still bound, per cent of control [5] | kinase still bound, per cent of control (PRKD1 (human)) | kinase still bound, per cent of control [6] | kinase still bound, per cent of control (AAK1 (human)) | kinase still bound, per cent of control (IRAK1 (human)) | kinase still bound, per cent of control (ERN1 (human)) | kinase still bound, per cent of control (CDC2L2 (human)) | kinase still bound, per cent of control (DYRK1B (human)) | kinase still bound, per cent of control (MELK (human)) | SMILES | further results
1 | 32% | 35% | 99% | 4.8% | 38% | 39% | 23% | 28% | 100% | 29% | 82% | 13% | 100% | 0.9% | 0.75% | 39% | 51% | 100% | 13% | 8.7% | O=C1Nc2cc(Br)ccc2/C1=C1/Nc2ccccc2/C1=N\O | kinase still bound, per cent of control [7]: 24%; kinase still bound, per cent of control (RPS6KA3 KD1 (human)): 80%; kinase still bound, per cent of control [8]: 38%; kinase still bound, per cent of control (EGFR (human)): 44%; kinase still bound, per cent of control [9]: 53%; kinase still bound, per cent of control [10]: 34%; kinase still bound, per cent of control [11]: 17%
2 | – | – | 87% | 100% | – | – | 100% | 96% | 94% | – | 100% | – | 69% | 88% | 100% | 100% | 100% | 100% | 100% | 63% | COc1ccc(CNC(=O)Nc2ncc([N+](=O)[O-])s2)cc1 | kinase still bound, per cent of control (TAOK1 (human)): 85% and 100%
3 | 100% | 99% | 7.8% | 86% | 90% | 100% | 77% | 100% | 100% | 94% | 93% | 77% | 100% | 83% | 26% | 100% | 100% | 100% | 2.2% | 100% | Cn1cc(C2=C(c3ccc(Cl)cc3Cl)C(=O)NC2=O)c2ccccc21 | kinase still bound, per cent of control (TAOK1 (human)): 90% and 98%; kinase still bound, per cent of control [7]: 91%; kinase still bound, per cent of control (RPS6KA3 KD1 (human)): 100%; kinase still bound, per cent of control [8]: 99%; kinase still bound, per cent of control (EGFR (human)): 100%; kinase still bound, per cent of control [9]: 97%; kinase still bound, per cent of control [10]: 83%; kinase still bound, per cent of control [11]: 85%
4 | – | – | 62% | 100% | – | – | 94% | 100% | 100% | – | 14% | – | 100% | 86% | 100% | 100% | 100% | 100% | 100% | 40% | Cc1cnc(-c2cnc(NCCNc3ccc(C#N)cn3)nc2-c2ccc(Cl)cc2Cl)[nH]1 | –
